Reference: ChEMBL document CHEMBL3885861, “Open TG-GATES”

Species: Rattus norvegicus
Assay: Open TG-GATES - Regimen: Single
Type: toxicity, organism-based, Sprague-Dawley
Parameters: regimen Single, gender Male, age 6 weeks
Details: in vivo, po, 0 mg/kg, route gavage, dose level Control; for APTT / Bas / Eos / Fbg / Hb / Ht / Lym / MCH / MCHC / MCV / Mono / Neu / PT / Plat / RBC / Ret / WBC: tissue Blood; for KIDNEY_L / KIDNEY_R / KIDNEY_TOTAL: tissue Kidney; for LIVER: tissue Liver; for A/G / ALP / ALT / AST / BUN / CRE / Ca / Cl / DBIL / GLC / IP / K / LDH / Na / PL / RALB / TBIL / TC / TG / TP / gamma-GTP: tissue Plasma

CN(C)CCC=C1c2ccccc2CCc2ccccc21 [AMITRIPTYLINE]
TERMINAL_BW (3 h): 194 g | APTT (3 h): 16.6 s | Bas (3 h): 0% | Eos (3 h): 0.8% | Fbg (3 h): 235.6 mg/dL | Hb (3 h): 12.8 g/dL | Ht (3 h): 39.8% | Lym (3 h): 77.6% | MCH (3 h): 20.9 pg | MCHC (3 h): 32.3% | MCV (3 h): 64.6 fL | Mono (3 h): 3.4% | Neu (3 h): 17.2% | PT (3 h): 16.2 s | Plat (3 h): 103.9 x10_4/uL | RBC (3 h): 616.6 x10_4/ul | Ret (3 h): 9.3% | WBC (3 h): 90.6 x10_2/uL | KIDNEY_L (3 h): 0.9 g | KIDNEY_R (3 h): 0.9 g | KIDNEY_TOTAL (3 h): 1.7 g | LIVER (3 h): 8.2 g | A/G (3 h): 0.8 | ALP (3 h): 1452 IU/L | ALT (3 h): 48.2 IU/L | AST (3 h): 80.8 IU/L | BUN (3 h): 8.8 mg/dL | CRE (3 h): 0.2 mg/dL | Ca (3 h): 10.7 mg/dL | Cl (3 h): 106 meq/L | DBIL (3 h): 0.01 mg/dL | GLC (3 h): 183.6 mg/dL | IP (3 h): 9.2 mg/dL | K (3 h): 4.1 meq/L | LDH (3 h): 66.2 IU/L | Na (3 h): 143 meq/L | PL (3 h): 124.4 mg/dL | RALB (3 h): 2.4 g/dL | TBIL (3 h): 0.062 mg/dL | TC (3 h): 67.6 mg/dL | TG (3 h): 44.4 mg/dL | TP (3 h): 5.3 g/dL | gamma-GTP (3 h): 1 IU/L | TERMINAL_BW (6 h): 193.8 g | APTT (6 h): 17 s | Bas (6 h): 0% | Eos (6 h): 0.8% | Fbg (6 h): 256.2 mg/dL | Hb (6 h): 12.7 g/dL | Ht (6 h): 38.9% | Lym (6 h): 72.6% | MCH (6 h): 20.6 pg | MCHC (6 h): 32.6% | MCV (6 h): 63.3 fL | Mono (6 h): 2.4% | Neu (6 h): 23.2% | PT (6 h): 15.8 s | Plat (6 h): 119.8 x10_4/uL | RBC (6 h): 615.8 x10_4/ul | Ret (6 h): 8.9% | WBC (6 h): 66 x10_2/uL | KIDNEY_L (6 h): 0.9 g | KIDNEY_R (6 h): 0.8 g | KIDNEY_TOTAL (6 h): 1.7 g | LIVER (6 h): 8.2 g | A/G (6 h): 0.9 | ALP (6 h): 1334.2 IU/L | ALT (6 h): 44.6 IU/L | AST (6 h): 74.4 IU/L | BUN (6 h): 8.6 mg/dL | CRE (6 h): 0.1 mg/dL | Ca (6 h): 10.7 mg/dL | Cl (6 h): 105.8 meq/L | DBIL (6 h): 0.008 mg/dL | GLC (6 h): 173.6 mg/dL | IP (6 h): 9.8 mg/dL | K (6 h): 4.2 meq/L | LDH (6 h): 62 IU/L | Na (6 h): 142.6 meq/L | PL (6 h): 142.6 mg/dL | RALB (6 h): 2.5 g/dL | TBIL (6 h): 0.06 mg/dL | TC (6 h): 78.4 mg/dL | TG (6 h): 67 mg/dL | TP (6 h): 5.4 g/dL | gamma-GTP (6 h): 1 IU/L | TERMINAL_BW (9 h): 191.9 g | APTT (9 h): 16 s | Bas (9 h): 0% | Eos (9 h): 1% | Fbg (9 h): 295.6 mg/dL | Hb (9 h): 12.8 g/dL | Ht (9 h): 39.1% | Lym (9 h): 77.6% | MCH (9 h): 20.9 pg | MCHC (9 h): 32.8% | MCV (9 h): 63.9 fL | Mono (9 h): 2.4% | Neu (9 h): 18.6% | PT (9 h): 15.2 s | Plat (9 h): 119.1 x10_4/uL | RBC (9 h): 611.8 x10_4/ul | Ret (9 h): 8.5% | WBC (9 h): 71.6 x10_2/uL | KIDNEY_L (9 h): 0.9 g | KIDNEY_R (9 h): 0.9 g | KIDNEY_TOTAL (9 h): 1.7 g | LIVER (9 h): 7.8 g | A/G (9 h): 0.8 | ALP (9 h): 1549.8 IU/L | ALT (9 h): 40.8 IU/L | AST (9 h): 71.4 IU/L | BUN (9 h): 8.8 mg/dL | CRE (9 h): 0.2 mg/dL | Ca (9 h): 10.7 mg/dL | Cl (9 h): 106.6 meq/L | DBIL (9 h): 0.01 mg/dL | GLC (9 h): 174.8 mg/dL | IP (9 h): 10 mg/dL | K (9 h): 4 meq/L | LDH (9 h): 60.4 IU/L | Na (9 h): 142.6 meq/L | PL (9 h): 140.4 mg/dL | RALB (9 h): 2.5 g/dL | TBIL (9 h): 0.06 mg/dL | TC (9 h): 79.4 mg/dL | TG (9 h): 44 mg/dL | TP (9 h): 5.4 g/dL | gamma-GTP (9 h): 1 IU/L | TERMINAL_BW (24 h): 208.1 g | APTT (24 h): 16.3 s | Bas (24 h): 0.4% | Eos (24 h): 1% | Fbg (24 h): 266 mg/dL | Hb (24 h): 12.5 g/dL | Ht (24 h): 38.5% | Lym (24 h): 77.8% | MCH (24 h): 21.2 pg | MCHC (24 h): 32.4% | MCV (24 h): 65.5 fL | Mono (24 h): 3.2% | Neu (24 h): 17% | PT (24 h): 16.3 s | Plat (24 h): 110 x10_4/uL | RBC (24 h): 589.4 x10_4/ul | Ret (24 h): 9.5% | WBC (24 h): 101.9 x10_2/uL | KIDNEY_L (24 h): 0.9 g | KIDNEY_R (24 h): 0.9 g | KIDNEY_TOTAL (24 h): 1.8 g | LIVER (24 h): 9.6 g | A/G (24 h): 0.8 | ALP (24 h): 1573.8 IU/L | ALT (24 h): 48.2 IU/L | AST (24 h): 77.4 IU/L | BUN (24 h): 15.4 mg/dL | CRE (24 h): 0.2 mg/dL | Ca (24 h): 11.1 mg/dL | Cl (24 h): 105 meq/L | DBIL (24 h): 0.016 mg/dL | GLC (24 h): 186.4 mg/dL | IP (24 h): 8.2 mg/dL | K (24 h): 4 meq/L | LDH (24 h): 90.2 IU/L | Na (24 h): 143.2 meq/L | PL (24 h): 153.8 mg/dL | RALB (24 h): 2.6 g/dL | TBIL (24 h): 0.054 mg/dL | TC (24 h): 79.4 mg/dL | TG (24 h): 97.4 mg/dL | TP (24 h): 5.6 g/dL | gamma-GTP (24 h): 0.6 IU/L
